Experimental data: patent publication US12655107B2 (The United States of America, as represented by the …, priority 2018, dated 2026)
Where “and” joins values, the source holds several entries; their conditions need not be identical. Equal values may be shown once.

Tests used:
Top1 = target: T1, Top1 (Homo sapiens, UniProt P11387); assay: Top1-mediated DNA cleavage assay; format: biochemical; settings: for Top1 cleavage: inhibition relative to 1 μM CPT, Table 6
T1 sequence (P11387 1-765): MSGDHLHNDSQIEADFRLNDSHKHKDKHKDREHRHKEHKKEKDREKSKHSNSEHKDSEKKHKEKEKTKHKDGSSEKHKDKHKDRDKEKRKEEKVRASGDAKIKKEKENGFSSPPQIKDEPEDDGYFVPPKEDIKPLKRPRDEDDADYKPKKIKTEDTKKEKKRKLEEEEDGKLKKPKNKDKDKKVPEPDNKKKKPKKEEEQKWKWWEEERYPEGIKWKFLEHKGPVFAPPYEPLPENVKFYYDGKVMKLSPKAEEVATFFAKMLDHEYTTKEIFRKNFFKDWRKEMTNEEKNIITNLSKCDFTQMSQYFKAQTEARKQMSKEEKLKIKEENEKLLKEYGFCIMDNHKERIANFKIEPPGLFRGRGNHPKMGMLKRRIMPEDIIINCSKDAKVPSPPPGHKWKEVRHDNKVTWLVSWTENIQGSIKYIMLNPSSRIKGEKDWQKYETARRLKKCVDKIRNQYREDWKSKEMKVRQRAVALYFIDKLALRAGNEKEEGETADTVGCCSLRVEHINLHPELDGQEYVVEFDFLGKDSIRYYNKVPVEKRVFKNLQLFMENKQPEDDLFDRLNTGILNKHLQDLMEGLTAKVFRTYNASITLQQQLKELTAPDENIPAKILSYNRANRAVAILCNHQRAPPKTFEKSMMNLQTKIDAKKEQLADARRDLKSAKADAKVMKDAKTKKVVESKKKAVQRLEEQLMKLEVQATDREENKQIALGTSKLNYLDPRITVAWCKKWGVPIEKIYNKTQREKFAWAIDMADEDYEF

Tdp1 = Tdp1 (Homo sapiens, UniProt Q9NUW8); assay: Tdp1 inhibition gel-based assay; settings: IC50 Tdp1 (μM), Table 6; replicate values listed in one cell
Sequence of Tdp1 (Q9NUW8 whole entry): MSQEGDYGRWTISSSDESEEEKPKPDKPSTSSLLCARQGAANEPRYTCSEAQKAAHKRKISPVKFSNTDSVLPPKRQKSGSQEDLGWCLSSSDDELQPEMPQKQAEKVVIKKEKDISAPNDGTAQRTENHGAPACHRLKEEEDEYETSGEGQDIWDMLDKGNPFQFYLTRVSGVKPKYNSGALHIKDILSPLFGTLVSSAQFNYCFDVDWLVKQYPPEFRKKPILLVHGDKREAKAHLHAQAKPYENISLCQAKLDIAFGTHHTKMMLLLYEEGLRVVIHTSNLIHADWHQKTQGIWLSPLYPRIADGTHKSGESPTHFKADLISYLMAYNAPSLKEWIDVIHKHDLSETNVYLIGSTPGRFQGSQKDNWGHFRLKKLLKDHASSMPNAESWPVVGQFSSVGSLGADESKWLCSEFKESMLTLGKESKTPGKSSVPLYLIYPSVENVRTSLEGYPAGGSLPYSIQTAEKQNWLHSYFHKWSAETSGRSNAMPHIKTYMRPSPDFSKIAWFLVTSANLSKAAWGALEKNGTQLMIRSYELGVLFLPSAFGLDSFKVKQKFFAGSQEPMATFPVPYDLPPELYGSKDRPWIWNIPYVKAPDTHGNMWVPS
Protocol: The indenoisoquinoline 10 was used as the positive control.
Gel-based assay. […] Gels were dried and exposed to a PhosphorImager screen (GE Healthcare). Gel images were scanned using a Typhoon FLA 9500 scanner (GE Healthcare), and densitometry analyses were performed using the ImageQuant software (GE Healthcare).

| SMILES | Top1 cleavage (Top1) | IC50 (Tdp1) | TOP1 inhibition (Top1; graded relative to CPT at 1 μM, Table 7) |
| --- | --- | --- | --- |
| COc1cc2c(=O)n(CCN(C)P3(=O)OCCO3)c3c4cc5c(cc4ccc3c2cc1OC)OCO5 [Compound 57, 2,3-dimethoxy-12-(2-(methyl(2-oxido-1,3,2-dioxaphospholan-2-yl)amino)ethyl)-[1,3]dioxolo[4′,5′:4,5]benzo[1,2-c]phenanthridin-13(12H)-one] | – | – | ++ (++, between 50% and 75% activity) |
| COc1cc2c(OCCCOC(=O)c3ccccc3)nc3c4cc5c(cc4ccc3c2cc1OC)OCO5 [NTD-208] | + (+ is 20-50%) | > 111 µM | – |
| COc1cc2c(NCCCN3CCN(C)CC3)nc3c4cc5c(cc4ccc3c2cc1OC)OCO5 [NTD-312] | + (+ is 20-50%) | > 111 µM | – |
| COc1cc2c(OCCCOC(=O)c3ccc(Cl)cc3)nc3c4cc5c(cc4ccc3c2cc1OC)OCO5 [NTD-210] | + (+ is 20-50%) | > 111 µM | – |
| COc1cc2c(NCCN3CCCC3)nc3c4cc5c(cc4ccc3c2cc1OC)OCO5 [NTD-307] | – | 56.2 µM | – |
| CN(C)CCn1c(=O)c2cc(O)ccc2c2ccc3ccccc3c21 [TWL-25A] | + (+ is 20-50%) | > 111 µM (2×) and 74.1 µM and 75.9 µM | – |
| CCN(CC)CCNc1nc2c3cc4c(cc3ccc2c2cc(OC)c(OC)cc12)OCO4 [NTD-305] | + (+ is 20-50%) | > 111 µM | – |
| COc1cc2c(NCCCN(C)C)nc3c4cc5c(cc4ccc3c2cc1OC)OCO5 [NTD-301] | 0 (0 is inactive) | 38 µM | – |
| COc1cc2c(OCCCOC(=O)c3ccc(Br)cc3)nc3c4cc5c(cc4ccc3c2cc1OC)OCO5 [NTD-209] | + (+ is 20-50%) | > 111 µM | – |
| CCC(CO)Nc1nc2c3cc4c(cc3ccc2c2cc(OC)c(OC)cc12)OCO4 (centres unmarked) [NTD-363] | + (+ is 20-50%) | – | – |
| COc1cc2c(OCCCN3CCC3)nc3c4cc5c(cc4ccc3c2cc1OC)OCO5 [NTD-225] | 0 (0 is inactive) | 20.6 ± 4.46 µM | – |
| CN(C)CCn1c(=O)c2c(O)c(O)ccc2c2ccc3cc4c(cc3c21)OCO4 [TWL-218A] | +++ (+++ is 75-95%) | – | – |
| COc1cc2c[n+](CCCn3ccnc3)c3c4cc5c(cc4ccc3c2cc1OC)OCO5 [NTD-192] | – | 81.3 ± 14.5 µM | – |
| COc1cc2c[n+](CCN(C)C)c3c4cc5c(cc4ccc3c2cc1OC)OCO5 [NTD-191] | – | 64.2 ± 23.9 µM | – |
| COc1cc2ccc3c4ccccc4c(=O)n(CCN(C)C)c3c2cc1OC [TWL-76H] | – | > 111 µM | – |
| COc1cc2c(SCCN(C)C)nc3c4cc5c(cc4ccc3c2cc1OC)OCO5 [NTD-403] | ++ (n = 2) (++ is 50-75%) | > 111 µM | – |
| CCN(CC)CCSc1nc2c3cc4c(cc3ccc2c2cc(OC)c(OC)cc12)OCO4 [NTD-404] | ++ (++ is 50-75%) | > 111 µM | – |
| COc1cc2c(NCCN3CCOCC3)nc3c4cc5c(cc4ccc3c2cc1OC)OCO5 [NTD-309] | + (n = 2) (+ is 20-50%) | > 111 µM | – |
| CCN1CCN(CCCOc2nc3c4cc5c(cc4ccc3c3cc(OC)c(OC)cc23)OCO5)CC1 [NTD-207] | + (+ is 20-50%) | > 111 µM | – |
| COc1cc2c(N(C)C)nc3c4cc5c(cc4ccc3c2cc1OC)OCO5 [NTD-329] | – | > 111 µM | – |
| CCN(CC)CC[n+]1cc2cc(OC)c(OC)cc2c2ccc3cc4c(cc3c21)OCO4 [NTD-195] | – | > 111 µM | – |
| COc1cc2c(NCCN)nc3c4cc5c(cc4ccc3c2cc1OC)OCO5 [NTD-325] | 0 (0 is inactive) | 72 µM and 107 µM | – |
| COc1cc2c(NCCN3CCCCC3)nc3c4cc5c(cc4ccc3c2cc1OC)OCO5 [NTD-313] | + (n = 2) (+ is 20-50%) | > 111 µM | – |
| CCOC(=O)COc1nc2c3cc4c(cc3ccc2c2cc(OC)c(OC)cc12)OCO4 [NTD-334] | – | > 111 µM | – |
| COc1cc2c(NCCCn3ccnc3)nc3c4cc5c(cc4ccc3c2cc1OC)OCO5 [NTD-314] | + (+ is 20-50%) | > 111 µM | – |
| C=CCOc1nc2c3cc4c(cc3ccc2c2cc(OC)c(OC)cc12)OCO4 [NTD-332] | – | > 111 µM | – |
| COc1cc2c(NCCN3CCNCC3)nc3c4cc5c(cc4ccc3c2cc1OC)OCO5 [NTD-311] | – | > 111 µM | – |
| COc1cc2c(OCCCN3CCN(C(C)=O)CC3)nc3c4cc5c(cc4ccc3c2cc1OC)OCO5 [NTD-205] | ++ (++ is 50-75%) | > 111 µM | – |

Second part, led by results:

| Top1 cleavage (Top1) | IC50 (Tdp1) | SMILES | TOP1 inhibition (Top1; graded relative to CPT at 1 μM, Table 7) |
| --- | --- | --- | --- |
| + (+ is 20-50%) | 75.9 µM and > 111 µM (2×) and 64.6 µM | CN(C)CCn1c(=O)c2ccccc2c2ccc3ccccc3c21 [TWL-5] | – |
| + (+ is 20-50%) | > 111 µM | COc1ccc2c(ccc3c4ccccc4c(=O)n(CCN(C)C)c23)c1 [TWL-9] | – |
| – | > 111 µM | COc1cc2ccc3c4cc(OC)c(OC)cc4c(=O)n(CCN(C)C)c3c2cc1O [TWL-131] | – |
| + (+ is 20-50%) | 11 µM and 30 µM and 72 µM | COc1ccc2c(c1O)c(=O)n(CCN(C)C)c1c3cc4c(cc3ccc21)OCO4 [TWL-211] | – |
| + (+ is 20-50%) | > 111 µM (2×) and 65 µM | COc1cc2c(cc1O)c(=O)n(CCN(C)C)c1c3cc4c(cc3ccc21)OCO4 [TWL-113] | – |
| ++ (++ is 50-75%) | – | COc1cc2c(=O)n(CCN(C)C)c3c4cc5c(cc4c(OC)cc3c2cc1OC)OCO5 [TWL-246] | – |
| + (+ is 20-50%) | > 111 µM | CN(C)CCn1c(=O)c2cc(O)c(O)cc2c2ccc3cc4c(cc3c21)OCO4 [TWL-170] | – |
| + (+ is 20-50%) | > 111 µM | COc1cc2ccc3c4ccc5c(c4c(=O)n(CCN(C)C)c3c2cc1OC)OCO5 [TWL-189] | – |
| – | > 111 µM | COc1cc2ccc3c4cc(OC)c(OC)cc4c(=O)n(CCN(C)C)c3c2cc1OC [TWL-48] | – |
| + (+ is 20-50%) | 18.2 ± 1.15 µM | CN(C)CCn1c(=O)c2cc3c(cc2c2ccc4ccccc4c21)OCO3 [TWL-40] | – |
| ++ (++ is 50-75%) | > 111 µM | COc1cc2c(=O)n(CCN(C)C)c3c4cc(O)c(O)cc4ccc3c2cc1OC [TWL-164] | – |
| + (+ is 20-50%) | 27.6 ± 19 µM | CN(C)CCn1c(=O)c2cc3c(cc2c2ccc4cc5c(cc4c21)OCO5)OCO3 [TWL-37] | – |
| + (+ is 20-50%) | > 111 µM | CN(C)CCn1c(=O)c2ccccc2c2ccc3cc4c(cc3c21)OCO4 [TWL-67] | – |
| – | 67.6 µM | COc1cc2ccc3c4cc5c(cc4c(=O)n(CCN(C)C)c3c2cc1OC)OCO5 [TWL-107] | – |
| – | > 111 µM | CN(C)CCn1c(=O)c2c3c(ccc2c2ccc4cc5c(cc4c21)OCO5)OCO3 [TWL-191] | – |
| + (+ is 20-50%) | > 111 µM | COc1cc2c(=O)n(CCN(C)C)c3c4cc5c(cc4ccc3c2cc1O)OCO5 [TWL-119] | – |
| + (+ is 20-50%) | > 111 µM | COc1ccc2c(=O)n(CCN(C)C)c3c4ccccc4ccc3c2c1 [TWL-17] | – |
| – | > 111 µM | CN(C)CCn1c(=O)c2ccccc2c2ccc3cc(Br)ccc3c21 [TWL-53] | – |
| + (+ is 20-50%) | 65 µM and 50 µM | COc1cc2c(ccc3c4cc(OC)c(OC)cc4c(=O)n(CCN(C)C)c23)cc1O [TWL-125] | – |
| + (+ is 20-50%) | > 111 µM | COc1cccc2c1ccc1c3ccccc3c(=O)n(CCN(C)C)c21 [TWL-26] | – |
| + (+ is 20-50%) | > 111 µM | COc1cc2c(=O)n(CCN(C)C)c3c4ccccc4ccc3c2cc1OC [TWL-44] | – |
| + (+ is 20-50%) | 49.4 ± 1.4 µM | COc1ccc2c(c1)c(=O)n(CCN(C)C)c1c3ccccc3ccc21 [TWL-25] | – |
| + (+ is 20-50%) | > 111 µM | CN(C)CCn1c(=O)c2c3c(ccc2c2ccc4ccccc4c21)OCO3 [TWL-185] | – |
| + (+ is 20-50%) | > 111 µM | COc1ccc2ccc3c4ccccc4c(=O)n(CCN(C)C)c3c2c1 [TWL-33] | – |
